The record followed here is patent publication US8614200B2, “Compounds, compositions and methods for treating ocular conditions” (Chimerix, Inc., priority 2009, dated 2013).

Format in all cases: cell-based
One assay deals with CMV. The assay can be described thus: in vitro antiviral activity against CMV. The note with it: for EC50: Human betaherpesvirus 5, CMV, in vitro.
The test system of a further assay is EBV. The assay can be described thus: in vitro antiviral activity against EBV.
For the next assay, the system named is VZV. Put plainly: in vitro antiviral activity against VZV.
The next assay deals with HHV-6. Put plainly: in vitro antiviral activity against HHV-6. The note with it: for EC50: HHV-6, in vitro.
For another assay, the system named is HSV-1. Put plainly: in vitro antiviral activity against HSV-1. The note with it: CMX001 versus cidofovir EC50, HSV-1.

Broadly, the EC50 is the midpoint of the concentration-response curve. A lower EC50 goes with a more potent agent. Consider `Nc1ccn(C[C@@H](CO)OCP(=O)(O)O)c(=O)n1` [Cidofovir, cidofovir, reference compound], for which the EC50 was 0.4 µM in the assay on CMV; greater than 108 µM in the assay on EBV (human gammaherpesvirus 4, EBV, in vitro); 0.5 µM with VZV (Human alphaherpesvirus 3, VZV, in vitro); 5.4 µM with HHV-6.

On to `CCCCCCCCCCCCCCCCOCCCOP(=O)(O)CO[C@H](CO)Cn1ccc(N)nc1=O` [CMX001], for which the “Enhanced Activity” value in the assay with CMV (CMX001 versus cidofovir EC50, CMV) is 400; in the assay on HSV-1 it was 92; in the assay with EBV (CMX001 versus cidofovir EC50, EBV), greater than 2700; in the assay on VZV (CMX001 versus cidofovir EC50, VZV) it was 125; in the assay with HHV-6 (CMX001 versus cidofovir EC50, HHV-6) it was 771. Besides, the results for the EC50 in the assay on CMV and in the assay on HHV-6 were 0.001 µM and 0.007 µM, respectively.
